# Assay results reported in US20240092784A1, “CONDENSED HETEROCYCLIC COMPOUND” (NISSAN CHEMICAL CORPORATION, priority 2020, published 2024).
# pIC50: −log10 of the molar value. Counter-ions that a name gives are not always drawn.
# Molecular target: human SPR (Homo sapiens (Human), UniProt P35270)
# Assay: Evaluation Example 2: Measurement of human SPR inhibitory activity (seven concentrations, sepiapterin absorbance at 420 nm)
# Type: biochemical
# Conditions: Evaluation Example 2, seven concentrations 0.14 nM to 100 nM, 240 minutes at room temperature, read-out: IC50
# Experimental: Human SPR was prepared as described below. The full-length human SPR (1-261) cDNA was purchased from Eurofins Genomics as an artificially synthesized plasmid containing a DNA sequence optimized for the E. coli expression system so that the sequence of the expressed protein after transcription and translation matches the sequence described in UniprotKB (P35270).
# Linearized insert and vector were prepared by PCR using primers designed for amplification of human SPR cDNA and primers designed to contain the thrombin recognition sequence of pET28a (Novagen) and a polyhistidine tag. Cloning was performed using In-Fusion (registered trademark) HD Cloning Kit (TaKaRa) to thereby construct a human SPR expression plasmid. The resultant human SPR expression plasmid was transformed into BL21 (DE3) competent cells (INVITROGEN).
# The cells were inoculated into LB medium (1% triptone, 0.5% yeast extract, 1% sodium chloride) containing […] of kanamycin, and then precultured at 37° C. overnight. The precultured cells were inoculated into TB medium (1.2% triptone, 2.4% yeast extract, 9.4% dipotassium hydrogen phosphate, 2.2% potassium dihydrogen phosphate, 0.8% glycerin) containing […] of kanamycin, and the cultured at 37° C., to thereby induce SPR expression with 0.5 mM IPTG for four hours. After the induction, the cells were collected by centrifugation at 6,000 G for 30 minutes and washed with PBS, and the washing was discarded. The washed cells were suspended in buffer solution A (20 mM MES, pH 6.5, 100 mM sodium chloride, 1 mM DTT, 5 mM imidazole). Subsequently, the cell suspension was subjected to ultrasonic treatment to thereby homogenize the cells. The cell homogenate was clarified by centrifugation at 30,000 G for 60 minutes and then filtered with a […]. The filtrate was allowed to pass through HisTrapFF 5 mL column (GE Healthcare). The resin was washed with buffer A, and then gradient elution was performed with buffer B (20 mM MES, pH 6.5, 100 mM sodium chloride, 1 mM DTT, 500 mM imidazole). Thrombin was added to a fraction containing the SPR protein, and the mixture was dialyzed in buffer A overnight, to thereby cleave the tag. After removal of the thrombin by with Benzamidine Sepharose 4 FF (GE Healthcare), the resultant product was allowed to pass through the HisTrapFF 5 mL column, to thereby remove the tag, followed by concentration with Amicon Ultra 10,000 NMWL (Merck Millipore). The concentrate was purified by gel filtration using HiLoad 16/60 Superdex 75 pg (GE Healthcare) equilibrated with buffer C (20 mM MES, pH 6.5, 100 mM sodium chloride, 1 mM DTT). The fraction containing SPR protein was concentrated and then cryopreserved at −80° C.
# Human SPR inhibitory activity was measured by using a 384-well low adsorption clear plate (Greiner) with buffer D containing 100 mM Tris-HCl (pH 7.5) (Thermo Fisher Scientific) and 0.01% bovine serum albumin (Sigma). A compound was diluted with DMSO to achieve seven different final concentrations; i.e., 0.14 nM, 0.41 nM, 1.23 nM, 3.7 nM, 11.1 nM, 33 nM, and 100 nM. A 1.5 μL aliquot of the compound solution prepared with DMSO was diluted with 250 μL of buffer D, and the thus-diluted solution was dispensed into the 384-well plate at 20 μL/well. Thereafter, human SPR was diluted with buffer D to 150 ng/mL and then dispensed into the 384-well plate at 20 μL/well. Subsequently, 40 μL of ultrapure water containing 120 μM sepiapterin (produced by the method described in L-Sepiapterin, Heterocycles, 2008, 76, 1329-1335 and WO 2013/168693) and 160 μM NADPH (Nacalai) was added to each well, and then reaction was initiated. The reaction mixture was incubated at room temperature for 240 minutes. Thereafter, in order to determine the amount of sepiapterin, the absorbance at 420 nm was measured by applying the 384-well plate to EnSpire multimode plate reader (Perkin Elmer). The percent inhibition (%) of human SPR by the test compound was calculated by the following formula.
# Chain of human SPR (P35270 whole entry): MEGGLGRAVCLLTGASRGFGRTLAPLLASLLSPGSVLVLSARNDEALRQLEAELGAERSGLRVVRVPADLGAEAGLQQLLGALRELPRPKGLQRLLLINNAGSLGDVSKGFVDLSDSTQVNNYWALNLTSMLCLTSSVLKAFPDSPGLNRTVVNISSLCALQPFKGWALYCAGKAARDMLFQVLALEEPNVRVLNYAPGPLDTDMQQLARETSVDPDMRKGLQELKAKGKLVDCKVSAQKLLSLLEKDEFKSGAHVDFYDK
row,SMILES,pIC50
1,"CC(C)(C)Cn1c(=O)c(C(=O)NC2CC2)c(O)n2nc(-c3cnc(F)cn3)cc12 [Synthesis Example 304, N-Cyclopropyl-2-(5-fluoropyrazin-2-yl)-7-hydroxy-4-neopentyl-5-oxo-4,5-dihydropyrazolo[1,5-a]pyrimidine-6-carboxamide]",8.52
2,"CC[C@H]1COCCN1C(=O)/C=C/c1c(C)nn2c(O)c(C(=O)NC3CC3)c(=O)n(CC(C)C)c12 [Synthesis Example 659, (S,E)-N-Cyclopropyl-3-(3-(3-ethylmorpholino)-3-oxoprop-1-en-1-yl)-7-hydroxy-4-isobutyl-2-methyl-5-oxo-4,5-dihydropyrazolo[1,5-a]pyrimidine-6-carboxamide]",9.08
3,"Cc1nn2c(O)c(C(=O)NC3CC3)c(=O)n(CC(C)C)c2c1/C=C/C(=O)N1CCO[C@@H](C)C1 [Synthesis Example 680, (S,E)-N-Cyclopropyl-7-hydroxy-4-isobutyl-2-methyl-3-(3-(2-methylmorpholino)-3-oxoprop-1-en-1-yl)-5-oxo-4,5-dihydropyrazolo[1,5-a]pyrimidine-6-carboxamide]",9.09
4,"Cc1nn2c(O)c(C(=O)NC3CC3)c(=O)n(CC(C)C)c2c1/C=C/C(=O)N1CCC(C(F)(F)F)C1 (stereo not shown) [Synthesis Example 614, (E)-N-Cyclopropyl-7-hydroxy-4-isobutyl-2-methyl-5-oxo-3-(3-oxo-3-(3-(trifluoromethyl)pyrrolidin-1-yl)prop-1-en-1-yl)-4,5-dihydropyrazolo[1,5-a]pyrimidine-6-carboxamide]",8.83
5,"CNc1nn2c(O)c(C(=O)NC3CC3)c(=O)n(CC(C)C)c2c1/C=C/C(=O)N1CCOC[C@@H]1C [Synthesis Example 430, (S,E)-N-Cyclopropyl-7-hydroxy-4-isobutyl-2-(methylamino)-3-(3-(3-methylmorpholino)-3-oxoprop-1-en-1-yl)-5-oxo-4,5-dihydropyrazolo[1,5-a]pyrimidine-6-carboxamide]",9.04
6,"CC(C)Cn1c(=O)c(C(=O)NC2CC2)c(O)n2ncc(/C=C/C(=O)N3CCC(=O)C3)c12 [compound 516, (E)-N-Cyclopropyl-7-hydroxy-4-isobutyl-5-oxo-3-(3-oxo-3-(3-oxopyrrolidin-1-yl)prop-1-en-1-yl)-4,5-dihydropyrazolo[1,5-a]pyrimidine-6-carboxamide]",9.21
7,"O=C(NC1CC1)c1c(O)n2ncc(/C=C/C(=O)N3CCOCC3)c2n(CC2CC2)c1=O [Synthesis Example 387, (E)-N-Cyclopropyl-4-(cyclopropylmethyl)-7-hydroxy-3-(3-morpholino-3-oxoprop-1-en-1-yl)-5-oxo-4,5-dihydropyrazolo[1,5-a]pyrimidine-6-carboxamide]",9.07
8,"Cc1nn2c(O)c(C(=O)NC3CC3)c(=O)n(CC(C)C)c2c1/C=C/C(=O)N1CCC[C@@H]1C [compound 580, (S,E)-N-Cyclopropyl-7-hydroxy-4-isobutyl-2-methyl-3-(3-(2-methylpyrrolidin-1-yl)-3-oxoprop-1-en-1-yl)-5-oxo-4,5-dihydropyrazolo[1,5-a]pyrimidine-6-carboxamide]",9.02
9,"CC(C)Cn1c(=O)c(C(=O)NC2CC2)c(O)n2ncc(/C=C/C(=O)N3[C@@H](C)COC[C@@H]3C)c12 [compound 457, N-Cyclopropyl-3-((E)-3-((3S,5S)-3,5-dimethylmorpholino)-3-oxoprop-1-en-1-yl)-7-hydroxy-4-isobutyl-5-oxo-4,5-dihydropyrazolo[1,5-a]pyrimidine-6-carboxamide]",9.09
10,"Nc1nn2c(O)c(C(=O)NC3CC3)c(=O)n(CC3CC3)c2c1/C=C/C(=O)N1CCC(F)(F)CC1 [Synthesis Example 420, (E)-2-Amino-N-cyclopropyl-4-(cyclopropylmethyl)-3-(3-(4,4-difluoropiperidin-1-yl)-3-oxoprop-1-en-1-yl)-7-hydroxy-5-oxo-4,5-dihydropyrazolo[1,5-a]pyrimidine-6-carboxamide hydrochloride]",9.12
11,"CC(C)Cn1c(=O)c(C(=O)NC2CC2)c(O)n2ncc(/C=C/C(=O)N3CCC(F)(F)CC3)c12 [compound 464, (E)-N-Cyclopropyl-3-(3-(4,4-difluoropiperidin-1-yl)-3-oxoprop-1-en-1-yl)-7-hydroxy-4-isobutyl-5-oxo-4,5-dihydropyrazolo[1,5-a]pyrimidine-6-carboxamide]",9.10
12,"CC(C)/C=C/c1c(N)nn2c(O)c(C(=O)NC3CC3)c(=O)n(CC(C)(C)C)c12 [Synthesis Example 442, (E)-2-Amino-N-cyclopropyl-7-hydroxy-3-(3-methylbut-1-en-1-yl)-4-neopentyl-5-oxo-4,5-dihydropyrazolo[1,5-a]pyrimidine-6-carboxamide hydrochloride]",8.82
13,"COC[C@H]1COCCN1C(=O)/C=C/c1cnn2c(O)c(C(=O)NC3CC3)c(=O)n(CC(C)C)c12 [compound 531, (S,E)-N-Cyclopropyl-7-hydroxy-4-isobutyl-3-(3-(3-(methoxymethyl)morpholino)-3-oxoprop-1-en-1-yl)-5-oxo-4,5-dihydropyrazolo[1,5-a]pyrimidine-6-carboxamide]",9.14
14,"CC(C)Cn1c(=O)c(C(=O)NC2CC2)c(O)n2ncc(C(=O)Nc3ccccn3)c12 [Synthesis Example 225, N6-Cyclopropyl-7-hydroxy-4-isobutyl-5-oxo-N3-(pyridin-2-yl)-4,5-dihydropyrazolo[1,5-a]pyrimidine-3,6-dicarboxamide]",8.74

# Same assay, conditions: sepiapterin absorbance, Table 41, read-out: concentration at 50% inhibition of human SPR (IC50)
row,SMILES,pIC50
1,"CC(C)Cn1c(=O)c(C(=O)NC2CC2)c(O)n2ncc(/C=C/C(=O)N3CCc4ccccc43)c12 [Synthesis Example 725, (E)-N-Cyclopropyl-7-hydroxy-3-(3-(indolin-1-yl)-3-oxoprop-1-en-1-yl)-4-isobutyl-5-oxo-4,5-dihydropyrazolo[1,5-a]pyrimidine-6-carboxamide]",8.44
2,"CC(C)Cn1c(=O)c(C(=O)NC2CC2)c(O)n2ncc(/C=C/C(=O)N3CCN(CC4CC(F)(F)C4)C[C@@H]3C)c12 [Synthesis Example 744, (S,E)-N-Cyclopropyl-3-(3-(4-((3,3-difluorocyclobutyl)methyl)-2-methylpiperazin-1-yl)-3-oxoprop-1-en-1-yl)-7-hydroxy-4-isobutyl-5-oxo-4,5-dihydropyrazolo[1,5-a]pyrimidine-6-carboxamide]",8.80
3,"CC(C)Cn1c(=O)c(C(=O)NC2CC2)c(O)n2ncc(/C=C/C(=O)N3CCOc4ccccc43)c12 [Synthesis Example 739, (E)-N-Cyclopropyl-3-(3-(2,3-dihydro-4H-benz[b][1,4]oxazin-4-yl)-3-oxoprop-1-en-1-yl)-7-hydroxy-4-isobutyl-5-oxo-4,5-dihydropyrazolo[1,5-a]pyrimidine-6-carboxamide]",8.81
4,"Cc1nn2c(O)c(C(=O)NC3CC3)c(=O)n(CC(C)C)c2c1/C=C/C(=O)N1C[C@H]2C[C@@H]1CO2 [Synthesis Example 754, 3-((E)-3-((1R,4R)-2-Oxa-5-azabicyclo[2.2.1]heptan-5-yl)-3-oxoprop-1-en-1-yl)-N-cyclopropyl-7-hydroxy-4-isobutyl-2-methyl-5-oxo-4,5-dihydropyrazolo[1,5-a]pyrimidine-6-carboxamide]",9.08
5,"COC[C@@H]1COCCN1C(=O)/C=C/c1c(C)nn2c(O)c(C(=O)NC3CC3)c(=O)n(CC(C)(C)C)c12 [Synthesis Example 693, (R,E)-N-Cyclopropyl-7-hydroxy-3-(3-(3-(methoxymethyl)morpholino)-3-oxoprop-1-en-1-yl)-2-methyl-4-neopentyl-5-oxo-4,5-dihydropyrazolo[1,5-a]pyrimidine-6-carboxamide]",9.15
